What was measured:
Settings in all cases: exposure time 48 h
[1] = system: Caenorhabditis elegans N2; experiment: AC50 for larval growth inhibition (Hill fit); higher = less potent
In short: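 Synchronised C. elegans N2 L1 larvae, 50 per well in 96-well plates, were grown at 20°C for 48 h in K-medium with killed OP50, 1% DMSO and 0.5–200 µM chemical. Worm size was read on a COPAS Biosort as extinction, log-transformed and averaged per well, and only wells holding at least 10 worms were kept. AC50 was obtained by a constrained Hill fit using weighted genetic-algorithm regression, with out-of-range values censored.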

[2] = system: Caenorhabditis elegans N2; experiment: lowest effective concentration for larval growth inhibition (size below effect threshold); higher = less potent
In short: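 Worm size was taken as per-worm extinction on the Biosort, log-transformed and turned into well means. The larvae (C. elegans N2, L1 stage, 50 per 96-well) had spent 48 h at 20°C in K-medium with killed bacteria, 1% DMSO and 0.5, 1, 5, 10, 50, 100 or 200 µM chemical. The lowest effective concentration marks the first dose where the plate-adjusted mean size drops under a cutoff and remains under it at every higher dose; the cutoff is 5.665.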

[3] = system: Caenorhabditis elegans N2; experiment: mean nematode size ln(EXT) after 48 h, plate-adjusted (DMSO control set to 6) (ln(EXT), control-adjusted); higher = larger nematodes / less growth inhibition
In short: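 Synchronised C. elegans N2 L1 larvae were grown for 48 h at 20°C in K-medium containing killed OP50, 1% DMSO and 0.5–200 µM chemical, at 50 per well and 4–6 wells per treatment. The Biosort recorded extinction for each worm, and a growth model removed debris. Worm size was obtained by natural-logging these values and averaging them per well. For plate adjustment, the vehicle control mean was subtracted and 6 was added.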

SMILES | AC50 for larval growth inhibition [1] | lowest effective concentration [2] | mean nematode size ln(EXT) (ln) ([3]; 0.5 µM) | mean nematode size ln(EXT) (ln) ([3]; 1 µM) | mean nematode size ln(EXT) (ln) ([3]; 5 µM) | mean nematode size ln(EXT) (ln) ([3]; 10 µM) | mean nematode size ln(EXT) (ln) ([3]; 50 µM) | mean nematode size ln(EXT) (ln) ([3]; 100 µM) | mean nematode size ln(EXT) (ln) ([3]; 200 µM)
CCCCC=O [Pentanal] | 185 µM | 200 µM | 5.98 | 5.93 | 5.9 | 6 | 6.05 | 6.02 | 5.56
O=[N+]([O-])c1cc(C(F)(F)F)c(Cl)c([N+](=O)[O-])c1Nc1ncc(C(F)(F)F)cc1Cl [Fluazinam] | 31.6 µM | 50 µM | 6.05 | 6.17 | 5.81 | 6.15 | 3.61 | 3.85 | 3.23
c1cc2c3c(cccc3c1)CC2 [Acenaphthene] | > 200 µM | 200 µM | 6.14 | 5.74 | 6.03 | 6.08 | 5.6 | 5.77 | 5.37
CCCN(CCC)c1c([N+](=O)[O-])cc(C(C)C)cc1[N+](=O)[O-] [Isopropalin] | > 200 µM | 50 µM | 5.89 | 5.9 | 5.87 | 5.73 | 5.47 | 5.14 | 4.96
CCOP(=S)(OCC)Oc1cc(C)nc(C(C)C)n1 [Diazinon] | 70.9 µM | 50 µM | 5.98 | 5.94 | 5.84 | 5.86 | 5.33 | 4.12 | 3.6
CS(=O)(=O)c1ccc(C(=O)C2C(=O)CCCC2=O)c([N+](=O)[O-])c1 [Mesotrione] | 107 µM | 200 µM | 5.87 | 5.92 | 5.92 | 6.03 | 5.9 | 5.68 | 5.41
Cn1cc(-c2ccccc2)c(=O)c(-c2cccc(C(F)(F)F)c2)c1 [Fluridone] | 52 µM | 100 µM | 6 | 5.95 | 5.96 | 5.88 | 5.69 | 4.25 | 5.6
CC(=O)c1ccc2c(c1)[C@H](NC(=O)c1ccc(F)cc1)[C@@H](O)C(C)(C)O2 [Carabersat] | 127 µM | 200 µM | 5.79 | 5.88 | 5.9 | 5.89 | 5.99 | 5.93 | 5.65
CC(C)Oc1cccc(NC(=O)c2ccccc2C(F)(F)F)c1 [Flutolanil] | 192 µM | 200 µM | 5.94 | 5.98 | 6.08 | 6.01 | 5.5 | 6.3 | 5.43
N#CSCSc1nc2ccccc2s1 [TCMTB] | 34 µM | 50 µM | 5.93 | 5.84 | 5.81 | 5.78 | 4.12 | 3.48 | 3.4
